According to patent US7070778B2, “Therapeutical combination against cancer” (Laboratoire Goemar SA, priority 2003, dated 2006):

Test system: BT-474 human breast carcinoma
Assay: Effect on the tumor growth: BT-474 human breast carcinoma xenograft in nude mice
Format: in vivo
Conditions: for Average daily weight of the tumor: Group 6: Paclitaxel 16 mg/kg i.p. once a day for 5 days
Description: Female nude mice (nulnu) between 5 and 6 weeks of age weighing approximately 20 g were obtained from Harlan, Inc. (Madison, Wis.). The BT-474 human breast carcinoma cell line was obtained from the American Type Culture Collection (ATCC). BT-474 was established by E. Lasfargues and W. G. Coutinho from a solid carcinoma of the breast obtained from a patient (2). Twenty-one-day release 17β-estradiol pellets at 0.25 mg (Innovative Research of America) were implanted subcutaneously into each mouse. The following day, animals were implanted s.c. by trocar with fragments of human tumor carcinomas harvested from s.c. growing tumors in nude mice hosts. When the tumors were approximately 40 mg in size (24 days following inoculation), the animals were pair-matched into treatment and control groups. All of the groups contained 9 mice. All of the animals were ear-tagged and followed individually throughout the experiment.
The mice of each group were administered intra peritoneally with 2 ml of the following composition:
Group 1: (control) sterile H2O, 5 times a day
Mice were weighed twice weekly, and tumor measurements were obtained using calipers twice weekly, starting on Day 1. These tumor measurements were converted to mg tumor weight by the standard formula, (W^2×L)/2 (2). The experiment was terminated when the control group tumor size reached an average of 500 mg. Upon termination (Day 46), the mice were weighed, sacrificed and their tumors were excised. The tumors were weighed, and the mean tumor weight per group was calculated.
With this agent, the final weight of a given tumor was subtracted from its own weight at the start of treatment on Day 1. This difference was divided by the initial tumor weight to give the % regression. A mean % tumor regression was calculated from data from mice in a group that experienced tumor regressions.

CC(=O)O[C@H]1C(=O)[C@@]2(C)[C@H]([C@H](OC(=O)c3ccccc3)[C@]3(O)C[C@H](OC(=O)[C@H](O)[C@@H](NC(=O)c4ccccc4)c4ccccc4)C(C)=C1C3(C)C)[C@]1(OC(C)=O)CO[C@@H]1C[C@@H]2O [Paclitaxel]
tumor regression (in words) (Paclitaxel 16 mg/kg i.p. once a day for 5 days): caused tumor regression | Average daily weight of the tumor (day 5): 3906 mg | Average daily weight of the tumor (day 9): 54.2 mg | Average daily weight of the tumor (day 16): 77.3 mg | Average daily weight of the tumor (day 19): 79.4 mg | Average daily weight of the tumor (day 23): 108.0 mg | Average daily weight of the tumor (day 26): 123.8 mg | Average daily weight of the tumor (day 29): 149.5 mg | Average daily weight of the tumor (day 32): 188.8 mg | Average daily weight of the tumor (day 36): 220.3 mg | Average daily weight of the tumor (day 39): 244.8 mg | Average daily weight of the tumor (day 43): 299.6 mg | Average daily weight of the tumor (day 46): 376.3 mg
